Source: EP0340198B1, “Immunoassay for the detection of alpha-haloacetamides” (priority 1988, dated 1989)

Experiments:
[1] = tested on: antibodies isolated from the serum of the first bleed of the rabbit; test: affinity column binding of 14C-labeled analytes from aqueous solution; details: for binding by the affinity column: 14C-labeled analogs, test of non-specific binding
Procedure: (§1) Affinity Chromatography. The preparation of affinity columns using rabbit antisera was as follows: The rabbit IgG's were purified by passing 5 mL of the antiserum through a column containing 5 mL of the swelled protein A-agarose gel. By monitoring the absorbance at 280 nm in the column effluent, the non-bound proteins were removed by washing with PBS, and the IgG's were then eluted with acetic acid at pH 2.3 (0.58% acetic acid and 0.15 M NaCl). The fractions containing the IgG's were combined and neutralized; based on the UV absorbance at 280 nm (absorbance/1.4 = mg/mL protein), approximately 33 mg of IgG were isolated from 5 mL of serum, which was then lyophilized and stored at -20°C. The reusable protein A-agarose column was stored in PBS containing 0.02% sodium azide at 4°C.
(§2) The protein A-purified IgG was immobilized onto Affigel-10 affinity support. Affigel-10 (5 mL) was washed 3 times with isopropyl alcohol and 3 times with cold distilled water in a Buchner funnel. The gel was then added to a solution of IgG (3 mL in 0.1 M HEPES buffer, pH 7.5) at 4°C. Following 4 hrs of stirring, the gel was precipitated by gentle centrifugation and washed with HEPES buffer (3 x 3 mL). The remaining active sites on the gel were blocked by resuspending the gel in water (2 mL) and adding ethanolamine HCl (0.5 mL, 1M), and stirring the mixture at 22°C for 1 hr. The affinity column was useful in adsorbing alachlor and other analytes from aqueous solutions. After binding the alachlor, the column was washed with water (2 mL/min) to remove unbound material and alachlor was eluted with 75% aqueous methanol.
Using the antibodies isolated from the serum of the first bleed of the rabbit, an affinity column for alachlor was constructed to study its utility as an isolation and purification tool. The IgG's in the serum of the rabbit immunized with the alachlor-IgG conjugate were purified with a protein A-agarose column. The purified IgG was then immobilized onto the Affigel-10 support. Alachlor (¹⁴C-labeled) in aqueous solution was passed through the column with a flow rate of 2 mL/min; the column was washed with water and eluted with 75% aqueous methanol. The radioactivity in the wash and eluent were determined by liquid scintillation counting. […] The capacity of the column was less than 1 µg, and once this level was exceeded, alachlor no longer bound to the column. The recovery of applied radioactivity generally ranged from 80% to 100%. In a second experiment, alachlor (0.5 µg) was dissolved into increasing volumes of water ranging from 1 mL to 100 mL.
To eliminate the possibility of non-specific binding of alachlor to the affinity column, other ¹⁴C-labeled analogs were also studied. These included acetanilide herbicides butachlor, acetochlor, metolachlor, and propachlor and the previously mentioned alachlor metabolites mercapturate and its methyl ester. The affinity column bound butachlor and acetochlor, but not metolachlor, propachlor, or mercapturate.

[2] = tested on: affinity column prepared from the serum of the first bleed of the rabbit immunized with the alachlor-IgG conjugate; test: affinity column extraction of alachlor and analogs from human urine; format: binding
Procedure: as §1, with “The fractions containing the IgG's were combined and neutralized; based on the UV absorbance at 280 nm (absorbance/1.4 = mg/mL protein), approximately 33 mg of IgG were isolated from 5 mL of serum, which was then lyophilized and stored at -20°C.” left out
as §2, with “The affinity column was useful in adsorbing alachlor and other analytes from aqueous solutions.” left out

[3] = tested on: antibodies toward butachlor; test: inhibition ELISA for butachlor; format: binding, rabbits; details: standard solutions at 10 and 50 ppb in DI water
From the text: The generation of antibodies toward butachlor (2-chloro-2′,6′-diethyl-N-(butoxymethyl)acetanilide), amidochlor (2-chloro-2′,6′-diethyl-N-acetamidomethyl acetanilide), and metolachlor (2-chloro-2′-ethyl-6′-methyl-N-(2-methoxy-1-methylethyl)acetanilide) were accomplished following identical procedures as those described for alachlor. The individual 14C-labeled chloroacetanilide was covalently bound to HSA (human serum albumin) with AHT, and to sheep IgG with AMSA.
The hapten-IgG conjugates were used to immunize rabbits. The corresponding hapten-BSA conjugates were then utilized in checkerboard assays to determine the presence of desired antibodies in the antisera. An inhibition ELISA for butachlor was set up with antiserum, butachlor-HSA screening antigen, and butachlor. Similar assays were also set up for amidochlor and metolachlor.
The sensitivity of the inhibition ELISA for butachlor, amidochlor, and metolachlor was tested with respective standards prepared in DI water. Using the best antiserum, the butachlor ELISA produced an IC50 of 8 ppb.
The specificity of the ELISA for butachlor, amidochlor, and metolachlor were tested using standard solutions of alachlor, acetochlor, butachlor, amidochlor, metolachlor, and propachlor at concentrations of 10 and 50 ppb in DI water. At these concentrations, the ELISA assay for butachlor, amidochlor, and metolachlor was each inhibited only by the respective free hapten, and not by any of the other chloroacetanilides.

affinity column = affinity column extraction of alachlor from rat urine containing alachlor metabolites; format: binding, rabbit; details: 0.5 µg/2 mL Urine
Procedure: as §1
as §2, with “The affinity column was useful in adsorbing alachlor and other analytes from aqueous solutions. After binding the alachlor, the column was washed with water (2 mL/min) to remove unbound material and alachlor was eluted with 75% aqueous methanol.” left out

Compound | binding by the affinity column [1] | % 14C Eluent (75% CH3OH) ([2]; 1.0 µg/2 mL human urine) [%] | % 14C Wash (H2O) ([2]; 1.0 µg/2 mL human urine) [%] | inhibition of the ELISA assay for butachlor [3] | extraction of alachlor by the column ([1]; 0.5 µg per 1 mL to 0.5 µ/50 mL (0.5 ppm to 10 ppb) in water) | efficiency of alachlor extraction by the column reduced by ([1]; 0.5 µg/100 mL (5 ppb) in water) [%] | capacity of the column ([1]; alachlor) | % 14C Eluent (75% CH3OH) ([2]; 0.1 µg/2 mL human urine) [%] | % 14C Wash (H2O) ([2]; 0.1 µg/2 mL human urine) [%] | % 14C Eluent (75% CH3OH) ([2]; 0.6 µg/2 mL human urine) [%] | % 14C Wash (H2O) ([2]; 0.6 µg/2 mL human urine) [%] | % 14C Eluent (75% CH3OH) ([2]; 1.4 µg/2 mL human urine) [%] | % 14C Wash (H2O) ([2]; 1.4 µg/2 mL human urine) [%] | % 14C Eluent (75% CH3OH) (affinity column) [%] | % 14C Wash (H2O) (affinity column) [%] | % 14C Eluent (75% CH3OH) ([2]; 1.2 µg/2 mL human urine) [%] | % 14C Wash (H2O) ([2]; 1.2 µg/2 mL human urine) [%]
CCOCN(C(=O)CCl)c1c(C)cccc1CC [Acetochlor, acetochlor] | bound | 38.0 | 61.0 | not | – | – | – | – | – | – | – | – | – | – | – | – | –
CCc1cccc(CC)c1N(COC)C(=O)CCl [Alachlor, α-chloro-2′,6′-diethyl-N-methoxymethyl acetanilide] | – | – | – | not | effectively extracted | 50 | less than 1 µg | 123.0 | 20.0 | 69.0 | 11.0 | 48.0 | 37.0 | 83.3 | 14.7 | – | –
CC(C)N(C(=O)CCl)c1ccccc1 [Propachlor, propachlor] | not | – | – | not | – | – | – | – | – | – | – | – | – | – | – | 11.0 | 88.0
